Structures can show the parent of a compound that is named as a salt.
Tests used:
Assay type in all cases: biochemical, human
[1] = LPI (labile plasma iron) assay without NTA; conditions: for serum concentration of chelator required for reducing LPI by 2 μM: 2 hr incubation with thalassemia serum at room temperature, LPI assay without NTA; for effect of added serum component on measured LPI values: added to sera from 6 thalassemic patients, citrate 0.15 mM, albumin 10 mg/ml, uric acid 0.5 mM
Method: Determination of LPI and DCI. The properties of the assays used in this study in their different modalities are compiled in Table 2, below.
(§1) LPI determination, The LPI (Labile iron in plasma) assay was used as described previously or in the presence of NTA added from a concentrated solution. In experiments testing the effects of various additives on LPI, 20 μl of the additives dissolved in HBS (HEPES buffered saline composed of 20 mM HEPES, 150 mM NaCl, pH 7.4) were mixed with 20 μl of serum. Control samples and iron standards were similarly diluted with HBS. LPI assays without added NTA (‘redox-active LPI’) are designated “LPI” and LPI assays with added NTA (0.5 mM unless stated otherwise) are designated “eLPI”.
Measurements of LPI were originally designed for the detection of labile forms of iron in native human plasma or serum. The purpose was to assess if those labile forms could serve as indicators of impending tissue iron overload and as direct targets of chelation, on the basis that they should be comprised of chemical forms that are distinguishable from the non-labile Tf-bound iron in that they are redox-active, exchangeable with other ligands and accessible to chelators. This led to simple and sensitive assays that are performed under nearly physiological conditions, with 40 μM ascorbate added to initiate redox cycling of the iron and ensuing generation of reactive oxygen species (ROS) that are quantified by a fluorescence assay (Table 1). […] Thus, the assay avoids the inadvertent detection of transferrin-bound iron or labile iron-chelates. The detected LPI reflects the most labile or redox-active forms of NTBI in native plasma or serum, but not putative forms bound to non-labile ligands (e.g. citrate, albumin) In addition, the detection of LPI might be susceptible to masking by plasma antioxidants. […] For comparison, they also used a more direct assay for NTBI, in which DFO-chelatable iron is determined by its stoichiometric binding to the probe fluorescein-DFO in the presence and absence of an iron mobilizing agent.

[2] = eLPI assay (LPI assay with added NTA); conditions: for serum concentration of chelator required for reducing eLPI by 2 μM: 2 hr incubation with thalassemia serum at room temperature, eLPI assay (0.5 mM NTA)
Method: as §1
As the iron-mobilizing effect of NTA on NTBI has been previously shown to be dependent on the NTA concentration, the effect of increasing NTA concentrations on LPI levels in 9 representative sera: 7 from thalassemia patients and 2 from normal individuals (FIG. 1) was assessed. […] The detected LPI signal reached maximum levels at 0.1 mM NTA in sera with LPI <1 μM and at 0.5 mM NTA in thalassemic sera with LPI >1 μM. Control sera […] remained LPI-negative at all tested concentrations of NTA, a finding corroborated in LPI tests carried out with 0.5 mM NTA on >100 sera from normal individuals (data not shown). The same values of LPI were obtained when sera were assayed with 0.5 mM NTA present in the final assay solution or when sera were preincubated with NTA for 1 hr prior to 10-fold dilution with assay solution lacking NTA. Based on the relatively fast (within minutes) and distinct extraction/mobilization of LPI components by moderate NTA treatment depicted in FIG. 1, a modality of the original LPI assay by incorporating 0.5mM NTA as extracting/mobilizing agent was adopted and referred to as enhanced LPI (eLPI).

[3] = DCI (directly chelatable iron) assay with fluorescein-DFO; conditions: for effect of added serum component on DCI values: added to thalassemia sera
Source text: DCI determination. The DCI assay (directly chelatable iron) was used for sample analysis of labile iron by assessing its binding to fluorescein-DFO (Table 1) with a fluorescence plate reader or adapted for flow cytometry using as analytical probe fluorescein and DFO covalently coupled to chemically modified polystyrene beads (Spherotec Inc., Lake Forest, Ill., USA) (and an Eclipse instrument (iCyt, Champaign, Ill., USA) (Breuer et al, to be published elsewhere). In tests of the effect of NTA on DCI determination, NTA was added from a stock solution directly to the assay reagents. In experiments testing the effects of various additives on DCI, 20 μl of the additives dissolved in HBS were mixed with 20 μl of serum samples and the combined mixture (40 μl) was used in the assay. Control samples and iron standards were similarly diluted with HBS. In previous publications the term DCI has always indicated the assay format without NTA. In the present work the two formats of the
DCI assay are designated DCI (−) (without NTA) and DCI (+) (with 0.1 mM NTA).
For comparing eLPI with NTBI, the present inventors have employed an alternative assay for NTBI, termed directly-chelatable iron or DCI (FIG. 2, lower panel). Unlike LPI and eLPI which measure iron redox activity, DCI measures the accessibility of NTBI to a fluorescent, high-affinity chelator probe (fluorescein-DFO). […] This was confirmed by testing 22 TM sera for DCI without and with 0.1 mM NTA. An average increase of 0.14±0.13 μM was obtained in the presence of NTA (Breuer, W. and Cabantchik, Z. I, unpublished observations). The concentration of NTA in the DCI assay had to be limited to 0.1 mM to avoid contributions from holo-Tf-iron. Release of iron from holo-Tf by various carboxylate ligands such as NTA in combination with DFO has been documented previously. […] The present inventors tentatively attribute the exogenous albumin-mediated reduction of DCI to the binding of the fluorescein moiety of fluorescein-DFO to one of purified-albumin's hydrophobic binding sites, leading to a partial loss of sensitivity to quenching of the fluorescent chelator by iron. As the majority of such sites is normally occupied in plasma, their interference with the above assay should be minor

| Molecule | serum concentration of chelator required for reducing LPI by 2 μM [1] [µM] | serum concentration of chelator required for reducing eLPI by 2 μM [2] [µM] | effect of added serum component on measured LPI values [1] | effect of added serum component on DCI values [3] | also measured |
| --- | --- | --- | --- | --- | --- |
| CC(=O)N(O)CCCCCNC(=O)CCC(=O)N(O)CCCCCNC(=O)CCC(=O)N(O)CCCCCN [DFO, deferrioxamine] | < 10 | ~10 |  |  | competition with fluorescein-DFO in preventing the detection of DCI ([3]; DCI assays without and with NTA): competed efficiently |
| Cc1c(O)c(=O)ccn1C [DFP, 1,2-dimethyl-3-hydroxypyridin-4-one] | ~25 | ~75 |  |  | concentration in the serum required to decrease DCI by 2 μM, compared with LPI and eLPI ([3]; DCI assays without and with NTA, 2 hr incubation with thalassemia serum): markedly greater |
| O=C(O)CC(O)(CC(=O)O)C(=O)O [citrate, sodium citrate] |  |  | significantly attenuated | Neither citrate nor uric acid significantly affected DCI values |  |
| O=c1[nH]c(=O)c2[nH]c(=O)[nH]c2[nH]1 [uric acid] |  |  | significantly attenuated | Neither citrate nor uric acid significantly affected DCI values |  |
| iron-saturated Tf: human apo-Tf saturated with iron (ferrous ammonium sulfate), dialyzed |  |  |  |  | effect of added serum component on eLPI values ([2]; 1 mg/ml added to 6 thalassemia sera in the presence of NTA): no significant effect |
